Source: PubChem BioAssay AID222 (DTP/NCI, 2004)
Several values for one entry are separate records, joined by “and”; a condition that tells them apart may be missing. Equal values may be shown once. Inconclusive results and toxic doses are left out. Rule for the calls: active = survival T/C of 150% or more; inactive = T/C below 125% in these data.

Tested on: C57BL/6 mice, intracerebral ependymoblastoma, median survival T/C
Experiment: NCI In Vivo Anticancer Drug Screen. Data for tumor model Ependymoblastoma (intracerebral) in C57BL/6 mice
Details: endpoint: median survival time, higher = longer survival
Experimental: The antitumor activity of compounds was measured in mice bearing transplantable tumors. Survival or tumor size were measured and the results are expressed as the measurement made in the treated group (T) divided by the measurement made in the vehicle treated control group (C). The tumor model used in this assay is Ependymoblastoma (intracerebral) in C57BL/6 mice

[1] = dose: 8.0 mg/kg/injection, schedule: Q01DX005 (ip), vehicle: Klucel (hydroxypropylcellulose) (HPC)
[2] = dose: 16.0 mg/kg/injection, schedule: Q01DX005 (ip), vehicle: Klucel (hydroxypropylcellulose) (HPC)
[3] = dose: 32.0 mg/kg/injection, schedule: Q01DX005 (ip), vehicle: Klucel (hydroxypropylcellulose) (HPC)
[4] = dose: 64.0 mg/kg/injection, schedule: Q01DX005 (ip), vehicle: Klucel (hydroxypropylcellulose) (HPC)
[5] = dose: 2.0 mg/kg/injection, schedule: Q01DX005 (ip), vehicle: saline
[6] = dose: 4.0 mg/kg/injection, schedule: Q01DX005 (ip), vehicle: saline
[7] = dose: 8.0 mg/kg/injection, schedule: Q01DX005 (ip), vehicle: saline
[8] = dose: 16.0 mg/kg/injection, schedule: Q01DX005 (ip), vehicle: saline
[9] = dose: 20.0 mg/kg/injection, schedule: Q01DX005 (ip), vehicle: saline
[10] = dose: 32.0 mg/kg/injection, schedule: Q01DX005 (ip), vehicle: saline
[11] = dose: 40.0 mg/kg/injection, schedule: Q01DX005 (ip), vehicle: saline
[12] = dose: 0.05 mg/kg/injection, schedule: Q01DX005 (ip), vehicle: saline
[13] = dose: 0.1 mg/kg/injection, schedule: Q01DX005 (ip), vehicle: saline
[14] = dose: 0.2 mg/kg/injection, schedule: Q01DX005 (ip), vehicle: saline
[15] = dose: 0.4 mg/kg/injection, schedule: Q01DX005 (ip), vehicle: saline
[16] = dose: 0.8 mg/kg/injection, schedule: Q01DX005 (ip), vehicle: saline
[17] = dose: 64.0 mg/kg/injection, schedule: Q01DX005 (ip), vehicle: saline with Tween-80
[18] = dose: 64.0 mg/kg/injection, schedule: Q01DX005 (ip), vehicle: saline
[19] = dose: 128.0 mg/kg/injection, schedule: Q01DX005 (ip), vehicle: Klucel (hydroxypropylcellulose) (HPC)
[20] = dose: 128.0 mg/kg/injection, schedule: Q01DX005 (ip), vehicle: saline with Tween-80

Measured: T/C

O=C1C(=O)c2ccccc2C(O)=C1CC=C(Cl)Cl
inactive: dose: 4.0 mg/kg/injection, schedule: Q01DX005 (ip), vehicle: Klucel (hydroxypropylcellulose) (HPC) 102 % of control and 109 % of control | [1] 100 % of control and 122 % of control | [2] 104 % of control and 113 % of control | [3] 107 % of control and 108 % of control | [4] 101 % of control and 105 % of control

COC1C(CO)OC(n2cnc3c(=S)nc(N)[nH]c32)C1O (stereo not drawn)
inactive: dose: 100.0 mg/kg/injection, schedule: Q01DX005 (ip), vehicle: Klucel (hydroxypropylcellulose) (HPC) 91 % of control

Nc1ccc(S(N)(=O)=O)cc1
inactive: dose: 45.0 mg/kg/injection, schedule: Q01DX005 (ip), vehicle: saline with Tween-80 97 % of control | dose: 90.0 mg/kg/injection, schedule: Q01DX005 (ip), vehicle: saline with Tween-80 88 % of control | dose: 180.0 mg/kg/injection, schedule: Q01DX005 (ip), vehicle: saline with Tween-80 96 % of control | dose: 360.0 mg/kg/injection, schedule: Q01DX005 (ip), vehicle: saline with Tween-80 100 % of control | dose: 720.0 mg/kg/injection, schedule: Q01DX005 (ip), vehicle: saline with Tween-80 90 % of control

CC[n+]1c(-c2ccccc2)c2cc(N)ccc2c2ccc(N)cc21
inactive: dose: 12.0 mg/kg/injection, schedule: Q01DX005 (ip), vehicle: saline 99 % of control

O=c1[nH]cc(F)c(=O)[nH]1
inactive: [5] 113 % of control | dose: 2.5 mg/kg/injection, schedule: Q01DX005 (ip), vehicle: saline 101 % of control | [6] 108 % of control | dose: 5.0 mg/kg/injection, schedule: Q01DX005 (ip), vehicle: saline 94 % of control | [7] 97 % of control | dose: 10.0 mg/kg/injection, schedule: Q01DX005 (ip), vehicle: saline 97 % of control | [8] 106 % of control | [9] 95 % of control | [10] 106 % of control

CC(CN1CC(=O)NC(=O)C1)N1CC(=O)NC(=O)C1 (stereo not drawn)
inactive: dose: 8.0 mg/kg/injection, schedule: Q01DX001 (ip), vehicle: Klucel (hydroxypropylcellulose) (HPC) 116 % of control | [1] 91 % of control and 112 % of control | dose: 16.0 mg/kg/injection, schedule: Q01DX001 (ip), vehicle: Klucel (hydroxypropylcellulose) (HPC) 87 % of control | [2] 110 % of control | dose: 32.0 mg/kg/injection, schedule: Q01DX001 (ip), vehicle: Klucel (hydroxypropylcellulose) (HPC) 89 % of control and 122 % of control | [3] 105 % of control | dose: 64.0 mg/kg/injection, schedule: Q01DX001 (ip), vehicle: Klucel (hydroxypropylcellulose) (HPC) 98 % of control and 118 % of control | [4] 90 % of control | dose: 128.0 mg/kg/injection, schedule: Q01DX001 (ip), vehicle: Klucel (hydroxypropylcellulose) (HPC) 95 % of control

NNC(=O)c1ccncc1
inactive: dose: 28.75 mg/kg/injection, schedule: Q01DX005 (ip), vehicle: saline 94 % of control | dose: 57.5 mg/kg/injection, schedule: Q01DX005 (ip), vehicle: saline 102 % of control | dose: 115.0 mg/kg/injection, schedule: Q01DX005 (ip), vehicle: saline 105 % of control

OC(CCl)CN1CC[N+]2(CC1)CC[N+]1(CCN(CC(O)CCl)CC1)CC2 (stereo not drawn)
inactive: [11] 109 % of control and 117 % of control

COc1cc2c(c(OC)c1OC)-c1ccc(OC)c(=O)cc1[C@@H](NC(C)=O)CC2
inactive: [12] 104 % of control | [13] 98 % of control | [14] 108 % of control | [15] 90 % of control | [16] 103 % of control

Nc1nc(=S)c2ncn(C3OC(COC(=O)c4ccc(Cl)cc4)C(OC(=O)c4ccc(Cl)cc4)C3OC(=O)c3ccc(Cl)cc3)c2[nH]1 (stereo not drawn)
inactive: dose: 18.75 mg/kg/injection, schedule: Q01DX005 (ip), vehicle: Klucel (hydroxypropylcellulose) (HPC) 96 % of control | dose: 37.5 mg/kg/injection, schedule: Q01DX005 (ip), vehicle: Klucel (hydroxypropylcellulose) (HPC) 87 % of control

COc1ccc(C[C@H](N)C(=O)NC2C(CO)OC(n3cnc4c(N(C)C)ncnc43)C2O)cc1 (stereo partly drawn)
inactive: [9] 104 % of control | [11] 101 % of control

O=c1[nH]c(=O)n([C@H]2CCCO2)cc1F
inactive: [1] 97 % of control and 98 % of control | dose: 8.0 mg/kg/injection, schedule: Q01DX005 (ip), vehicle: saline with Tween-80 90 % of control and 97 % of control | [7] 101 % of control and 111 % of control | [2] 100 % of control and 106 % of control and 112 % of control | dose: 16.0 mg/kg/injection, schedule: Q01DX005 (ip), vehicle: saline with Tween-80 103 % of control and 105 % of control | [8] 100 % of control and 110 % of control | [3] 98 % of control and 109 % of control and 114 % of control | dose: 32.0 mg/kg/injection, schedule: Q01DX005 (ip), vehicle: saline with Tween-80 102 % of control and 106 % of control | [10] 102 % of control and 109 % of control (2×) | [4] 100 % of control and 103 % of control and 108 % of control | [17] 104 % of control and 120 % of control | [18] 98 % of control and 111 % of control (2×) | [19] 112 % of control and 117 % of control | [20] 111 % of control and 114 % of control | dose: 128.0 mg/kg/injection, schedule: Q01DX005 (ip), vehicle: saline 102 % of control and 113 % of control and 119 % of control | dose: 256.0 mg/kg/injection, schedule: Q01DX005 (ip), vehicle: saline 106 % of control and 121 % of control

CCN(CC)CCNc1ccc(CO)c2sc3ccccc3c(=O)c12
inactive: [5] 94 % of control | [6] 104 % of control | [7] 104 % of control | [8] 101 % of control | [10] 111 % of control | [18] 119 % of control

O=[N+]([O-])O.[Ga]
inactive: [10] 110 % of control

CCC1=C[C@H]2CN(CCc3c([nH]c4ccccc34)[C@@](C(=O)OC)(c3cc4c(cc3OC)N(C)[C@H]3[C@@](O)(C(=O)OC)[C@H](OC(C)=O)[C@]5(CC)C=CCN6CC[C@]43[C@@H]65)C2)C1
inactive: [12] 100 % of control | [13] 108 % of control | [14] 110 % of control | [15] 103 % of control | [16] 102 % of control | dose: 1.6 mg/kg/injection, schedule: Q01DX005 (ip), vehicle: saline 105 % of control

O=c1cc[nH]c(=O)[nH]1
inactive: [3] 98 % of control | [4] 98 % of control and 105 % of control | [17] 95 % of control | [19] 100 % of control and 108 % of control | [20] 98 % of control | dose: 256.0 mg/kg/injection, schedule: Q01DX005 (ip), vehicle: Klucel (hydroxypropylcellulose) (HPC) 98 % of control and 110 % of control | dose: 256.0 mg/kg/injection, schedule: Q01DX005 (ip), vehicle: saline with Tween-80 94 % of control | dose: 512.0 mg/kg/injection, schedule: Q01DX005 (ip), vehicle: Klucel (hydroxypropylcellulose) (HPC) 96 % of control and 104 % of control | dose: 512.0 mg/kg/injection, schedule: Q01DX005 (ip), vehicle: saline with Tween-80 104 % of control | dose: 1024.0 mg/kg/injection, schedule: Q01DX005 (ip), vehicle: Klucel (hydroxypropylcellulose) (HPC) 109 % of control | dose: 1024.0 mg/kg/injection, schedule: Q01DX005 (ip), vehicle: saline with Tween-80 100 % of control

O=c1n(CC2CO2)c(=O)n(CC2CO2)c(=O)n1CC1CO1 (stereo not drawn)
inactive: dose: 20.0 mg/kg/injection, schedule: Q01DX009 (ip), vehicle: saline 114 % of control | dose: 25.0 mg/kg/injection, schedule: Q01DX009 (ip), vehicle: saline 114 % of control | dose: 40.0 mg/kg/injection, schedule: Q01DX009 (ip), vehicle: saline 124 % of control | dose: 50.0 mg/kg/injection, schedule: Q01DX009 (ip), vehicle: saline 111 % of control | dose: 100.0 mg/kg/injection, schedule: Q01DX009 (ip), vehicle: saline 95 % of control
